Data taken from patent publication US7300770B2, “Detection of microbe contamination on elastomeric articles” (Kimberly-Clark Worldwide, Inc., priority 2004, dated 2007).

Key:
[1] = tested on: aged chicken juice; assay: N-docosyl merocyanine dye on cotton fabric spotted with aged chicken juice
[2] = tested on: aged chicken juice; assay: Comparative dyes dropped onto aged chicken juice on paper towel; conditions: aged chicken juice on SCOTT paper towel
[3] = tested on: budgie feces suspension; assay: N-methyl merocyanine coated towel exposed to budgerigar feces suspension; conditions: tap water control
Source text: Budgerigar feces was collected from a caged pet budgie, and shaken in approximately 10 milliliters of Atlanta city domestic tap water.

[4] = tested on: aged urine (approximately 1x10^5 CFU/milliliters); assay: N-methyl merocyanine coated towel exposed to aged female human urine; conditions: aged urine filtered through 0.2-micron filter
[5] = Reichardt's dye and TMB coated towel exposed to dilute bleach; conditions: towel coated with mixture of Reichardt's dye and TMB

Structure (SMILES) | Color change on dropping dye onto aged chicken juice [2] | further results
CCCCCCCCCCCCCCCCCCCCCC[n+]1ccc(C=Cc2ccc(O)cc2)cc1.[Br-] | – | Color change on spotting aged chicken juice ([1]; orange-yellow dye spots on cotton fabric): color change to very pale yellow; Color change on spotting aged chicken juice ([1]; pinkish-orange areas (dye + NaOH soln.)): pinkish-orange to very pale yellow
CC(=O)Nc1ccc(/N=N/c2c(N)ccc3cc(S(=O)(=O)[O-])cc(O)c23)c(S(=O)(=O)[O-])c1.[Na+].[Na+] [Acid Red 37] | No color changes were observed | –
O=C([O-])C1=NN(c2ccc(S(=O)(=O)[O-])cc2)C(=O)C1N=Nc1ccc(S(=O)(=O)[O-])cc1.[Na+].[Na+].[Na+] (centres unmarked) [Acid Yellow 23] | No color changes were observed | –
O=C1/C(=C2\Nc3ccc(S(=O)(=O)[O-])cc3C2=O)Nc2ccc(S(=O)(=O)[O-])cc21.[Na+].[Na+] [Cl Acid Blue 74] | No color changes were observed | –
Cc1ccc(Nc2ccc(Nc3ccc(C)cc3S(=O)(=O)[O-])c3c2C(=O)c2ccccc2C3=O)c(S(=O)(=O)[O-])c1.[Na+].[Na+] [Cl Acid Green 25] | No color changes were observed | –
Cc1ccc(Nc2ccc(Nc3ccc(C)cc3S(=O)(=O)[O-])c3c2C(=O)c2c(O)ccc(O)c2C3=O)c(S(=O)(=O)[O-])c1.[Na+].[Na+] [Cl Acid Green 41] | No color changes were observed | –
CCN(CC)c1ccc2c(-c3ccc(S(=O)(=O)[O-])cc3S(=O)(=O)[O-])c3ccc(=[N+](CC)CC)cc-3oc2c1.[Na+] [Cl Acid Red 52] | No color changes were observed | –
COc1cc(/C=C/c2cc[n+](C)cc2)ccc1[O-] [N-methyl merocyanine dye] | – | Color change of coated towel [3]: remained orange; Color change of coated towel [4]: did not cause a color change
Cc1cc(-c2cc(C)c(N)c(C)c2)cc(C)c1N [TMB] | – | Color response to dilute bleach solution [5]: turning orange/yellow color
